Ten molecules from ChEMBL document CHEMBL3045012, “Quinoline-based azetidinone and thiazolidinone analogues as antimicrobial and antituberculosis agents” (2013) can be followed below.

In brackets after ≈: the same amount, converted by molar mass.

Holding throughout (assay type): functional
Test [1] concerns Escherichia coli. The test is described as follows: Antimicrobial activity against Escherichia coli MTCC 739 assessed as growth inhibition after 24 hr by agar streak dilution technique. As to conditions: MTCC 739, 24 h.
Test [2] relates to Mycobacterium tuberculosis. The test is described as follows: Antituberculosis activity against Mycobacterium tuberculosis H37Rv assessed as growth inhibition after 12 to 28 days by L-J MIC method. As to conditions: for MIC: Mycobacterium tuberculosis, H37Rv.
Test [3] has as its system Pseudomonas aeruginosa. Briefly: Antimicrobial activity against Pseudomonas aeruginosa MTCC 741 assessed as diameter of growth inhibition zone after 24 hr by paper disk diffusion technique. A general note: A growth-free zone around the sample is the usual read-out of agar diffusion tests.
Test [4] relates to Pseudomonas aeruginosa. The test is described as follows: Antimicrobial activity against Pseudomonas aeruginosa MTCC 741 assessed as growth inhibition after 24 hr by agar streak dilution technique. To be noted: MTCC 741, 24 h.
The subject of test [5] is Candida albicans. Briefly: Antimicrobial activity against Candida albicans MTCC 183 assessed as diameter of growth inhibition zone after 24 hr by paper disk diffusion technique.
Test [6] relates to Staphylococcus aureus. The test is described as follows: Antimicrobial activity against Staphylococcus aureus MTCC 96 assessed as diameter of growth inhibition zone after 24 hr by paper disk diffusion technique.
In test [7] the test system is Bacillus subtilis. Briefly: Antimicrobial activity against Bacillus subtilis MTCC 430 assessed as diameter of growth inhibition zone after 24 hr by paper disk diffusion technique.
Test [8] relates to Escherichia coli. The test is described as follows: Antimicrobial activity against Escherichia coli MTCC 739 assessed as diameter of growth inhibition zone after 24 hr by paper disk diffusion technique.
Test [9] relates to Aspergillus niger. The test is described as follows: Antimicrobial activity against Aspergillus niger MTCC 282 assessed as diameter of growth inhibition zone after 24 hr by paper disk diffusion technique.
For test [10], the system named is Bacillus subtilis. The test is described as follows: Antimicrobial activity against Bacillus subtilis MTCC 430 assessed as growth inhibition after 24 hr by agar streak dilution technique. As to conditions: MTCC 430, 24 h.
In test [11] the test system is Aspergillus niger. Briefly: Antimicrobial activity against Aspergillus niger MTCC 282 assessed as growth inhibition after 48 hr by agar streak dilution technique. To be noted: MTCC 282, 48 h.
For test [12], the system named is Staphylococcus aureus. The test is described as follows: Antimicrobial activity against Staphylococcus aureus MTCC 96 assessed as growth inhibition after 24 hr by agar streak dilution technique. To be noted: MTCC 96, 24 h.
The test system of test [13] is Candida albicans. Briefly: Antimicrobial activity against Candida albicans MTCC 183 assessed as growth inhibition after 48 hr by agar streak dilution technique. As to conditions: MTCC 183, 48 h.

Consider `O=C1C(Cl)C(c2cc3ccccc3nc2Cl)N1c1cccc([N+](=O)[O-])c1` (stereo not given), for which the MIC in the test with Escherichia coli [1] is 62.5 µg/mL (≈ 161 µM); in [2], 100 µg/mL (≈ 258 µM); in the test with Pseudomonas aeruginosa [4], 50 µg/mL (≈ 129 µM); with Bacillus subtilis [10], 50 µg/mL (≈ 129 µM); in the test with Aspergillus niger [11] it was 50 µg/mL (≈ 129 µM); in the test with Staphylococcus aureus [12] it was 25 µg/mL (≈ 64.4 µM). For the same molecule, the minimum inhibitory concentration (MIC) in the test on Candida albicans [13] stood at 100 µg/mL (≈ 258 µM). Further, the “growth inhibition (GI)” value in test [2] was found to be 93%. For the same molecule, the “diameter of the inhibition zone (DIZ)” value in the test on Pseudomonas aeruginosa [3] is recorded as 22 mm; with Candida albicans [5] it was 19 mm; in the test with Staphylococcus aureus [6], 25 mm; in the test on Bacillus subtilis [7], 21 mm; with Escherichia coli [8], 22 mm; with Aspergillus niger [9], 26 mm.

As to `O=C1C(Cl)C(c2cc3ccccc3nc2Cl)N1c1ccc([N+](=O)[O-])cc1` (stereo not given), the MIC in the test with Escherichia coli [1] amounted to 100 µg/mL (≈ 258 µM); in test [2], 50 µg/mL (≈ 129 µM); in the test with Pseudomonas aeruginosa [4], 12.5 µg/mL (≈ 32.2 µM); in the test with Bacillus subtilis [10], 50 µg/mL (≈ 129 µM); in the test on Aspergillus niger [11], 50 µg/mL (≈ 129 µM); with Staphylococcus aureus [12] it was 12.5 µg/mL (≈ 32.2 µM). For the same molecule, the minimum inhibitory concentration (MIC) in the test with Candida albicans [13] was found to be 100 µg/mL (≈ 258 µM). Moreover, the “growth inhibition (GI)” value in test [2] was 96%. The “diameter of the inhibition zone (DIZ)” value in the test on Pseudomonas aeruginosa [3] worked out at 23 mm; with Candida albicans [5] it was 19 mm; in the test on Staphylococcus aureus [6], 25 mm; with Bacillus subtilis [7], 23 mm; with Escherichia coli [8], 20 mm; with Aspergillus niger [9], 24 mm.

As for `O=C1C(Cl)C(c2cc3ccccc3nc2Cl)N1c1ccccc1Cl` (stereo not given), the MIC in the test on Escherichia coli [1] amounted to 62.5 µg/mL (≈ 165 µM); in [2], 62.5 µg/mL (≈ 165 µM); in the test with Pseudomonas aeruginosa [4] it was 50 µg/mL (≈ 132 µM); in the test on Bacillus subtilis [10] it was 12.5 µg/mL (≈ 33.1 µM); in the test on Aspergillus niger [11] it was 100 µg/mL (≈ 265 µM); with Staphylococcus aureus [12], 62.5 µg/mL (≈ 165 µM). For the same molecule, the MIC in the test with Candida albicans [13] was 100 µg/mL (≈ 265 µM). In test [2], the “growth inhibition (GI)” value is 97%. The “diameter of the inhibition zone (DIZ)” value amounted to 20 mm with Pseudomonas aeruginosa [3]; 18 mm in the test on Candida albicans [5]; 24 mm in the test on Staphylococcus aureus [6]; 24 mm in the test with Bacillus subtilis [7]; 21 mm in the test with Escherichia coli [8]; 19 mm in the test with Aspergillus niger [9].

Consider `O=C1C(Cl)C(c2cc3ccccc3nc2Cl)N1c1cccc(Cl)c1` (stereo not given), for which the MIC was determined as 62.5 µg/mL (≈ 165 µM) with Escherichia coli [1]; 50 µg/mL (≈ 132 µM) in [2]; 25 µg/mL (≈ 66.2 µM) in the test with Pseudomonas aeruginosa [4]; 12.5 µg/mL (≈ 33.1 µM) in the test on Bacillus subtilis [10]; 62.5 µg/mL (≈ 165 µM) in the test with Aspergillus niger [11]; 25 µg/mL (≈ 66.2 µM) in the test with Staphylococcus aureus [12]. Moreover, the MIC in the test with Candida albicans [13] was 62.5 µg/mL (≈ 165 µM). For the same molecule, the “growth inhibition (GI)” value in test [2] worked out at 98%. Also, the “diameter of the inhibition zone (DIZ)” value in the test on Pseudomonas aeruginosa [3] was 22 mm; in the test on Candida albicans [5], 20 mm; in the test with Staphylococcus aureus [6], 25 mm; in the test with Bacillus subtilis [7], 23 mm; in the test on Escherichia coli [8], 21 mm; with Aspergillus niger [9] it was 25 mm.

For the molecule `O=C1C(Cl)C(c2cc3ccccc3nc2Cl)N1c1ccc(Cl)cc1` (stereo not given), the minimum inhibitory concentration (MIC) in the test with Escherichia coli [1] is 50 µg/mL (≈ 132 µM); in [2], 100 µg/mL (≈ 265 µM); with Pseudomonas aeruginosa [4], 25 µg/mL (≈ 66.2 µM); in the test on Bacillus subtilis [10] it was 12.5 µg/mL (≈ 33.1 µM); in the test on Aspergillus niger [11] it was 100 µg/mL (≈ 265 µM); with Staphylococcus aureus [12] it was 50 µg/mL (≈ 132 µM). Besides, the MIC in the test with Candida albicans [13] stood at 62.5 µg/mL (≈ 165 µM). In addition, in [2], the “growth inhibition (GI)” value came to 95%. Also, the “diameter of the inhibition zone (DIZ)” value with Pseudomonas aeruginosa [3] was 23 mm; with Candida albicans [5], 21 mm; in the test on Staphylococcus aureus [6] it was 21 mm; in the test with Bacillus subtilis [7] it was 24 mm; in the test with Escherichia coli [8] it was 22 mm; with Aspergillus niger [9], 22 mm.

For `O=C1C(Cl)C(c2cc3ccccc3nc2Cl)N1c1ccc(F)cc1` (stereo not given), the minimum inhibitory concentration (MIC) amounted to 25 µg/mL (≈ 69.2 µM) in the test with Escherichia coli [1]; 25 µg/mL (≈ 69.2 µM) in test [2]; 50 µg/mL (≈ 138 µM) in the test on Pseudomonas aeruginosa [4]; 25 µg/mL (≈ 69.2 µM) with Bacillus subtilis [10]; 25 µg/mL (≈ 69.2 µM) with Aspergillus niger [11]; 25 µg/mL (≈ 69.2 µM) in the test on Staphylococcus aureus [12]. In addition, in the test with Candida albicans [13], the MIC came to 50 µg/mL (≈ 138 µM). Moreover, the “growth inhibition (GI)” value in test [2] was determined as 98%. In addition, the “diameter of the inhibition zone (DIZ)” value in the test on Pseudomonas aeruginosa [3] is 22 mm; with Candida albicans [5], 24 mm; with Staphylococcus aureus [6], 23 mm; in the test with Bacillus subtilis [7], 23 mm; with Escherichia coli [8], 23 mm; with Aspergillus niger [9], 26 mm.

`Cc1cnc(N2C(=O)C(Cl)C2c2cc3ccccc3nc2Cl)s1` (stereo not given): the MIC was 25 µg/mL (≈ 68.6 µM) with Escherichia coli [1]; 12.5 µg/mL (≈ 34.3 µM) in test [2]; 50 µg/mL (≈ 137 µM) in the test on Pseudomonas aeruginosa [4]; 50 µg/mL (≈ 137 µM) with Bacillus subtilis [10]; 62.5 µg/mL (≈ 172 µM) in the test with Aspergillus niger [11]; 50 µg/mL (≈ 137 µM) in the test on Staphylococcus aureus [12]. The MIC in the test with Candida albicans [13] was 100 µg/mL (≈ 275 µM). The “growth inhibition (GI)” value in test [2] was found to be 99%. Also, the “diameter of the inhibition zone (DIZ)” value in the test on Pseudomonas aeruginosa [3] is reported as 21 mm; with Candida albicans [5], 23 mm; with Staphylococcus aureus [6], 23 mm; with Bacillus subtilis [7], 21 mm; in the test with Escherichia coli [8], 24 mm; with Aspergillus niger [9], 23 mm.

`O=C1CSC(c2cc3ccccc3nc2Cl)N1c1ccccc1` (stereo not given): the MIC with Escherichia coli [1] was found to be 100 µg/mL (≈ 293 µM); in test [2], 250 µg/mL (≈ 733 µM); in the test with Pseudomonas aeruginosa [4] it was 100 µg/mL (≈ 293 µM); in the test on Bacillus subtilis [10], 100 µg/mL (≈ 293 µM); with Aspergillus niger [11] it was 100 µg/mL (≈ 293 µM); in the test on Staphylococcus aureus [12], 100 µg/mL (≈ 293 µM). Also, the minimal inhibitory concentration (MIC) in the test with Candida albicans [13] was found to be 100 µg/mL (≈ 293 µM). Also, the “growth inhibition (GI)” value in [2] is listed as 92%. For the same molecule, the “diameter of the inhibition zone (DIZ)” value with Pseudomonas aeruginosa [3] is 13 mm; in the test on Candida albicans [5] it was under 10 mm; in the test with Staphylococcus aureus [6], 17 mm; with Bacillus subtilis [7] it was under 10 mm; with Escherichia coli [8] it was under 10 mm; in the test with Aspergillus niger [9], 14 mm.

Consider `Cc1ccccc1N1C(=O)CSC1c1cc2ccccc2nc1Cl` (stereo not given), for which the MIC with Escherichia coli [1] is 100 µg/mL (≈ 282 µM); in test [2], 500 µg/mL (≈ 1410 µM); with Pseudomonas aeruginosa [4], 100 µg/mL (≈ 282 µM); with Bacillus subtilis [10], 100 µg/mL (≈ 282 µM); with Aspergillus niger [11], 100 µg/mL (≈ 282 µM); in the test with Staphylococcus aureus [12], 100 µg/mL (≈ 282 µM). For the same molecule, the minimal inhibitory concentration (MIC) in the test on Candida albicans [13] is 100 µg/mL (≈ 282 µM). The “growth inhibition (GI)” value in [2] was found to be 90%. For the same molecule, the “diameter of the inhibition zone (DIZ)” value with Pseudomonas aeruginosa [3], in the test with Candida albicans [5], with Staphylococcus aureus [6], in the test on Bacillus subtilis [7], in the test with Escherichia coli [8] and in the test with Aspergillus niger [9] was under 10 mm throughout.

`Cc1cccc(N2C(=O)CSC2c2cc3ccccc3nc2Cl)c1` (stereo not given): the MIC stood at 100 µg/mL (≈ 282 µM) in the test on Escherichia coli [1]; 500 µg/mL (≈ 1410 µM) in test [2]; 100 µg/mL (≈ 282 µM) in the test on Pseudomonas aeruginosa [4]; 100 µg/mL (≈ 282 µM) in the test with Bacillus subtilis [10]; 100 µg/mL (≈ 282 µM) in the test with Aspergillus niger [11]; 100 µg/mL (≈ 282 µM) in the test with Staphylococcus aureus [12]. Moreover, the minimal inhibitory concentration (MIC) in the test with Candida albicans [13] was determined as 100 µg/mL (≈ 282 µM). For the same molecule, the “growth inhibition (GI)” value in test [2] is on record as 90%. For the same molecule, the “diameter of the inhibition zone (DIZ)” value in the test with Pseudomonas aeruginosa [3] is 16 mm; in the test on Candida albicans [5], 13 mm; in the test on Staphylococcus aureus [6], 18 mm; in the test with Bacillus subtilis [7] it was 17 mm; in the test with Escherichia coli [8], under 10 mm; with Aspergillus niger [9], 19 mm.

As usually defined, the MIC is the lowest concentration that inhibits growth of the organism.
